Here are results for 7 compounds from patent US20250353835A1, “N-TETRAZOLYL ARYL UREA-BASED DERIVATIVES, PREPARATION METHOD THEREFOR, AND USE THEREOF” (Hangzhou Yirui Pharmaceutical Technology Co., Ltd, priority 2022, published 2025).

The target in one data set is T1, human B1R (Homo sapiens, UniProt P46663).
T1 construct: host or cells: HEK293
T1 sequence (P46663 1-353): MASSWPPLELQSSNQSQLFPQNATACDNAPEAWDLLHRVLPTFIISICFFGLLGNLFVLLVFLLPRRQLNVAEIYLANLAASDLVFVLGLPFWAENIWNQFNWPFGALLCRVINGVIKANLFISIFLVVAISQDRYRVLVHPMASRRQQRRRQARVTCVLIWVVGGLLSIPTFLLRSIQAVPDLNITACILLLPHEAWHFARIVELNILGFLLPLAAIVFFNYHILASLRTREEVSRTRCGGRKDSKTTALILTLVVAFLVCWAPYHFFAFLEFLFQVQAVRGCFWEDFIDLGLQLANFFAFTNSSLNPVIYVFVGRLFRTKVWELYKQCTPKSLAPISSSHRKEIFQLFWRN
Put plainly: FLIPR calcium ion flux assay, inhibitory activity against human B1R. Format: cell-based. Conditions: HEK293 cells stably expressing human B1R; agonist [Lys-des-Arg9]-Bradykinin 4.6 nM (EC80); FLIPR method. The essentials:
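HEK293 cells stably expressing human B1R, loaded with Fluo-4 Direct plus probenecid; compounds 9-point 1:5 series from 30 μM, duplicate, preincubated 10 min. Stimulation with [Lys-des-Arg9]-bradykinin at 4.6 nM final (EC80); peak fluorescence at 538 nm gave IC50.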

A short description of data set [1]: Drug concentration in rat retinas after intraocular injection (HPLC). Format: in vivo, Wistar rats. Conditions: male, Wistar, rat, retina, other: intraocular injection, 5 μL of 0.5% solution per eye; Day 7 after intraocular injection of 0.5% (5 μL per eye); read-out: retinal drug concentration. An excerpt: 1.1 Experimental aminals: SPF-grade male Wistar rats weighed 180-220 g.
1.2 Drugs and reagents: Compound 71; sodium chloride injection (Shandong Qidu Pharmaceutical Co., Ltd., Batch No.: 3B151014124); acetonitrile (chromatographically pure, TEDIA, USA); methanol (chromatographically pure, SIGMA-ALDRICH product); triethylamine (analytically pure, Hangzhou Gaojing Fine Chemical Co., Ltd.).
1.3 Experimental grouping and administration: according to the sampling time, 33 male Wistar rats were divided into 11 groups (three rats per group) of: (1) control group; (2) 0 h; (3) 2 h; (4) 6 h; (5) 24 h; (6) 48 h; (7) 72 h; (8) 5 d; (9) 7 d; (10) 10 d; (11) 14 d. Three rats in the control group were injected with solvent (sterile normal saline) intraocularly, and the remaining 30 rats were injected with Compound 71 intraocularly at a concentration of 0.5% by using a 5 μL microinjector, and 5 μL of drug was injected per bulbus oculi.
1.4 Sampling and detection index: The retina of the rat in the control group was taken on Day 14 (14 d), and the retina of the remaining 30 rats was taken at the corresponding time points. The retina were frozen in liquid nitrogen, and then subjected to the subsequent HPLC detection.
1.5.1 Chromatographic conditions: The mobile phase was chromatographic grade acetonitrile-water=25-75 (v/v). The flow rate was 0.5 mL/min. The column temperature was 25° C. The UV detection wavelength was 254 nm. The injection volume was 20 μL.
1.5.2 Sample processing and preparation: the sample of the rat retina was taken out from the ultra-low temperature (−80° C.) refrigerator, accurately weighed and placed in a glass homogenizer, and ethyl acetate as an organic solvent pre-cooled in a 4° C. refrigerator was added at a ratio of 100 mL/g. The homogenizer was placed in an ice bath for homogenization. After homogenization, all the homogenate was poured into a 5 mL stoppered centrifuge tube. The centrifugation was performed at a low temperature of 4° C. for 5 min (5000 r/min). All the organic phase as the upper layer was accurately taken out and placed in a glass tube with conical bottom. The remaining residue of retina was extracted with 2 mL ethyl acetate repeatedly once. After centrifugation, the two organic phases were combined. Then, the centrifuge tube with conical bottom was blowed for dryness in a nitrogen flow in a 45° C. water bath. The residue was redissolved with 0.1 mL of chromatographic methanol, vortex mixed for 1 min, and centrifuged for 5 min at a high speed of 18000 r/min. 20 μL of the supernatant was taken, and analyzed in a high-performance liquid chromatography system.
1.5.3 Sample determination: After intraocular injection of 5 μL of 0.5% Compound 71, the retina was taken at different time points to analyze the drug content of the test compound in the retina.
1.5.4 Experimental results and conclusions: According to the retinal drug concentration-time curve, it is in conformity to the non-absorption two-compartment model. According to the pharmacokinetic non-absorption two-compartment model theory, the pharmacokinetic parameters of the drug were calculated.

The subject of data set [2] is rat model of diabetic retinopathy. Put plainly: Rat model of diabetic retinopathy (STZ). To be noted: for retinal leukocyte stasis, Leukocyte count: Concanavalin A/FITC, 14 days after intravitreal injection, compounds 0.25%, dexamethasone 0.1%; for number of leukocyte stasis in the retina (fluorescent staining, FIG. 8; in words) / retinal vascular penetration in rats (fluorescent staining, FIG. 6; in words): intraocular injection, versus model group. Format: in vivo, Wistar rats. As to the method:
3.1 Laboratory animals: SPF-grade male Wistar rats, weighed 180-220 g.
3.3 Animal modeling and grouping: After one week of adaptive feeding, 134 male Wistar rats (weighed 220-260 g) were administered 65 mg/kg of STZ by one-time intraperitoneal injection to prepare a rat model of type I diabetic. The rats were fasting but water was allowable overnight for 15 h. The formulated STZ solution was intraperitoneally injected according to body weight. After 1 h, the diet was resumed and blood glucose was measured at 72 h. The successfully modeled diabetic rats (120 rats) were selected for continued feeding, and randomly divided into the following 6 groups according to blood glucose (20 rats per group), plus a group of normal rats with no STZ injected as a negative control group.
3.4 Administration: The rats continued to be fed until blood glucose was measured once before administration. After blood glucose reached the standard, drugs were intravitreally injected, and indexs were subsequently tested after 14 days. Blood glucose was measured once before sampling.
3.5 Evans blue staining method (7 groups, 6 rats per group): Evans blue was intravenously injected. 2 hours later, normal saline was perfused into the left ventricle. The retina was taken to compare between the stained area and the unstained area to detect retinal vascular permeability.
3.6 Retinal leukocyte stasis detection method (7 groups, 6 rats per group): PBS was perfused into the left ventricle for 1 min to remove red blood cells and other substances. Concanavalin A (FITC (Sigma, C7642) was perfused (20 μg/ml in PBS, 5 mg/kg) to mark adherent leukocytes. 4% PFA was perfused for 4 min for fixation. 1% Albumin (Sigma, A6414) (in PBS) was perfused for 1 min, and then PBS was perfused for 2 min. The retina was taken for retinal wholemount. Thereafter, the stasis of leukocytes on the vascular endothelium was observed under a fluorescence microscope. […]

Data set [3] deals with mouse model of ragweed pollen-induced allergic conjunctivitis. Description: Mouse model of ragweed pollen-induced allergic conjunctivitis. The data set is classed as in vivo, Balb/c mice. As for the experimental part:
SPF-grade Balb/c mice (half male and half female, 6-8 weeks old) were used as experimental animals. On Day 0 and Day 6, ragweed pollen footpad injection was injected subcutaneously into the footpads of mice for sensitization (65 μl per mouse). On Days 10-14, in the model group, eye drop of ragweed pollen was applied to both eyes of the mice (10 μl per mouse) once a day. The eye drops were applied for 5 consecutive days to trigger local allergic conjunctivitis (Wu B, et al., Frontiers in Immunology, 2021, 12:4754). […] On Day 14, within 30 minutes after the final challenge, the ocular clinical symptoms of the mice were observed under a microscope and scored according to the scoring criteria reported by Magone et al. (MerayoLloves J, et al., J Allergy Clin Immunol (1996) 97(5):1129-40; Magone M T, et al., Clin Immunol Immunopathol (1998) 87(1):75-84), the allergic response of the eyes were observed, including 4 indexes: conjunctival edema, conjunctival congestion, eyelid congestion and edema, and tearing. The scores were recorded as 0-3 points according to the severity (including none, mild, moderate and severe). The left eye of the mouse was taken with the eyelid (keeping the conjunctiva intact), fixed with polyformaldehyde, sectioned in paraffin, Hematoxylin-Eosin stained (HE stained), and toluidine blue stained (for detection of mast cells). Photographs were taken to analyze the inflammatory cell infiltration of the conjunctival tissue, and observe whether the mast cells in the conjunctiva aggregated and whether a phenomenon of degranulation occurred. The expression of allergic indicators IL-4 and IgE in the conjunctival tissue was detected by immunohistochemistry.
The mouse eye, including the eyelids (with intact conjunctiva), was sectioned after deparaffinization, and subjected to antigen retrieval and serum blocking.
Diluted IL-4 or IgE antibodies were added and incubated overnight. After incubation with secondary antibodies, DAB staining was performed, followed by counterstaining with hematoxylin. The slides were then mounted and observed under an […], with photographs taken. Semi-quantitative analysis was conducted using Image-J software. Based on the cumulative optical density and regional area values of each image, the average optical density was calculated to detect the positive expression of IL-4 or IgE.

For data set [4], the system named is rat model of acute lung injury. Description: Rat model of LPS-induced acute lung injury. To be noted: ELISA; test drug 30 mg/kg i.p. 2 h before and 1 h after LPS; 12 h after modeling. Format: in vivo, Wistar rats. The arrangement: IL-6 (serum) / IL-6 (homogenate of lung tissue) / IL-6 (bronchoalveolar lavage fluid) / TNF-α (serum) / TNF-α (homogenate of lung tissue) / TNF-α (bronchoalveolar lavage fluid): unit not given here. As for the experimental part:
1. Experimental aminals: SPF-grade male Wistar rats, weighed 180-220 g, 6-8 weeks old.
3. Establishment of animal model: The rats were adaptively fed for one week. After the animals were anesthetized, 3 mg/kg LPS (B8) was injected intratracheally to prepare the rat model of acute lung injury.
4. […] At 2 hours before modeling (before tracheal injection of LPS), the test drug (30 mg/kg, the vehicle was 0.3% DMSO in saline) was intraperitoneally injected. At 1 hour after modeling, the test drug was administered once again (at the same dose). At 12 hours after modeling, the animals were sacrificed, and the samples were collected for the tests of various indexes. […]
5.2 ELISA method: 5 rats per group. The serum, alveolar lavage fluid, and tissue homogenate of one lung of each of the rats were subjected to ELISA assay to determine the TNF-α and IL-6 levels.

[5] abbreviates: immunohistochemistry, dexamethasone 0.1% eye drop.

Consider `COc1ccc(-c2ccc(NC(=O)N3CCC(C(F)(F)F)CC3)cc2-c2nn[nH]n2)cc1OC` [Compound 2, N-(3′,4′-dimethoxy-2-(2H-tetrazol-5-yl)-[1,1′-biphenyl]-4-yl)-4-(trifluoromethyl)piperidine-1-carboxamide], for which, at human B1R, the IC50 stood at 0.148 µM. Further, the concentration at 7 d in data set [1] amounted to 1540 nM.
`COc1ccc(-c2c(F)cc(NC(=O)N3CCC(C(C)(C)C)CC3)cc2-c2nn[nH]n2)cc1OC` [Compound 11, 4-(tert-butyl)-N-(2-fluoro-3′,4′-dimethoxy-6-(2H-tetrazol-5-yl)-[1,1′-biphenyl]-4-yl)piperidine-1-carboxamide]: at human B1R, the IC50 worked out at 0.0146 µM. In data set [2], the “retinal leukocyte stasis, Leukocyte count” value (“retinal leukocyte stasis” below) is on record as 7.20 ± 8.44; the “number of leukocyte stasis in the retina (fluorescent staining, FIG. 8; in words)” value is “significantly reduced”; the “retinal vascular penetration in rats (fluorescent staining, FIG. 6; in words)” value is reported as “significantly reduced”.
Regarding `COc1ccc(-c2ccc(NC(=O)N(C)[C@H]3CC[C@H](C(C)(C)C)CC3)cc2-c2nn[nH]n2)cc1OC` [Compound 65, 1-((trans)-4-(tert-butyl)cyclohexyl)-3-(3′,4′-dimethoxy-2-(2H-tetrazol-5-yl)-[1,1′-biphenyl]-4-yl)-1-methylurea], at human B1R, the IC50 was 0.0435 µM. In addition, in data set [2], the “retinal leukocyte stasis” value was found to be 5.14 ± 1.20; the “number of leukocyte stasis in the retina (fluorescent staining, FIG. 8; in words)” value is recorded as “significantly reduced”; the “retinal vascular penetration in rats (fluorescent staining, FIG. 6; in words)” value is given as “significantly reduced”.
With `CC(C)(C)[C@H]1CC[C@@H](NC(=O)Nc2ccc(-c3ccc4c(c3)OCO4)c(-c3nn[nH]n3)c2)CC1` [Compound 70, 1-(4-(benzo[d][1,3]dioxolan-5-yl)-3-(2H-tetrazol-5-yl)phenyl)-3-((cis)-4-(tert-butyl)cyclohexyl)urea], the half-maximal inhibitory concentration (IC50) at human B1R was found to be 0.303 µM.
Still for that read-out and setting: to `C[C@H]1CC[C@@H](NC(=O)Nc2ccc(OC3CCOCC3)c(-c3nn[nH]n3)c2)CC1` [Compound 72] belongs 12 µM.
Take `C[C@H]1CC[C@H](NC(=O)Nc2ccc(OC3CCOCC3)c(-c3nn[nH]n3)c2)CC1` [Compound 73]: on human B1R, the IC50 came to 13.7 µM.
`C[C@@H]1C[C@H]2[C@@H]3CCC4=CC(=O)C=C[C@]4(C)[C@@]3(F)[C@@H](O)C[C@]2(C)[C@@]1(O)C(=O)CO` [Dexamethasone, dexamethasone, reference compound] had a Clinical symptom score in data set [3] (0.1% dexamethasone eye drop, twice a day for 14 days, Day 14 within 30 minutes after final challenge) of 4.75 ± 0.51. In addition, in data set [3] (setting [5]), the “expression of IL-4 in ocular tissue (average optical density)” value is 0.23±0.09 and the “expression of IgE in ocular tissue (average optical density)” value is listed as 0.53±0.11. In data set [2], the “retinal leukocyte stasis” value worked out at 4.17 ± 3.21. In data set [4], the “IL-6 (bronchoalveolar lavage fluid)” value was found to be 115.59 ± 67.57, the “IL-6 (homogenate of lung tissue)” value was found to be 150.17 ± 100.46, the “IL-6 (serum)” value was determined as 255.58 ± 109.87 and the “TNF-α (bronchoalveolar lavage fluid)” value is 13.62 ± 7.33. In addition, in data set [4], the “TNF-α (homogenate of lung tissue)” value was 19.17 ± 7.55 and the “TNF-α (serum)” value is given as 57.26 ± 19.27.
